How the values were obtained:
[1] = target: T1, Serine/threonine-protein kinase TBK1 (Homo sapiens, UniProt Q9UHD2); assay: TBK1 : The kinase assay is performed as 384-well Flashplate assay (for e.g. Topcount measurement. 0.6 nM TANK binding kinase (TBK1), 800 nM biotinylated MELK-derived peptide (Biotin-Ah-Ah-[…]) SEQ ID NO: 2 and 10 uM ATP (spiked with 0.25 uCi 33P-ATP/well) are incubated in a total volume of 50 ul (10 mM MOPS, 10 mM Mg-acetat, 0.1 mM EGTA, 1 mM DTT, 0.02% Brij35, 0.1% BSA, pH 7.5) with or without test compound for 120 Min at 30° C. The reaction is stopped with 25 ul 200 mM EDTA. After 30 Min at room temperature the liquid is removed and each well washed thrice with 100 ul 0.9% sodium chloride solution.
T1 sequence (Q9UHD2 whole entry): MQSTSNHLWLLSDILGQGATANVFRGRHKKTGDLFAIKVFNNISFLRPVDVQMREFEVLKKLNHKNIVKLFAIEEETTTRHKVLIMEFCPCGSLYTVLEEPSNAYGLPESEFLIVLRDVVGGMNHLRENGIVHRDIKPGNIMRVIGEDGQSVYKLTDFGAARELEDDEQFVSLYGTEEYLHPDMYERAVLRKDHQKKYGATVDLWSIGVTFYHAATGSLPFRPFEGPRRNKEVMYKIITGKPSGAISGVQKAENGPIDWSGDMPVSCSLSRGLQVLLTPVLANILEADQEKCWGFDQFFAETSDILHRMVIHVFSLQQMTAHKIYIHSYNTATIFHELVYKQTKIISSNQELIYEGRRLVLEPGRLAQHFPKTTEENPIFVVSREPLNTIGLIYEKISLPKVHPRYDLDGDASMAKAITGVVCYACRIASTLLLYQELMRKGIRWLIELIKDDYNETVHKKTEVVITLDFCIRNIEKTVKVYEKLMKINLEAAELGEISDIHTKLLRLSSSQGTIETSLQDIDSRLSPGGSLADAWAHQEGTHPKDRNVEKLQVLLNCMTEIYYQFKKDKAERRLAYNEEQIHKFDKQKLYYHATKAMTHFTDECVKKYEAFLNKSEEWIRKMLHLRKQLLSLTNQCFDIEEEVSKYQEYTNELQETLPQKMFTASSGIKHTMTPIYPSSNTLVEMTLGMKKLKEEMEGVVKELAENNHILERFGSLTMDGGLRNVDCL

[2] = target: T2, Inhibitor of nuclear factor kappa-B kinase subunit epsilon (Homo sapiens, UniProt Q14164); assay: IKKepsilon Flashplate Assay: The kinase assay is performed either as 384-well Flashplate assay (for e.g. Topcount measurement). 1 nM IKKepsilon, 800 nM biotinylated IkappaBalpha(19-42) peptide (Biotin-C6-C6-[…]) SEQ ID NO: 1 and 10 uM ATP (spiked with 0.3 uCi 33P-ATP/well) are incubated in a total volume of 50 ul (10 mM MOPS, 10 mM Mg-acetat, 0.1 mM EGTA, 1 mM Dithiothreitol,0.02% Brij35, 0.1% BSA, 0.1% BioStab, pH 7.5) with or without test compound for 2 hours at 30° C. The reaction is stopped with 25 ul 200 mM EDTA. After 30 Min at room temperature the liquid is removed and each well washed thrice with 100 ul 0.9% sodium chloride solution. Non-specific reaction is determined in presence of 3 uM MSC2119074 (BX-795). Radioactivity is measured with Topcount (PerkinElmer).
T2 sequence (Q14164 whole entry): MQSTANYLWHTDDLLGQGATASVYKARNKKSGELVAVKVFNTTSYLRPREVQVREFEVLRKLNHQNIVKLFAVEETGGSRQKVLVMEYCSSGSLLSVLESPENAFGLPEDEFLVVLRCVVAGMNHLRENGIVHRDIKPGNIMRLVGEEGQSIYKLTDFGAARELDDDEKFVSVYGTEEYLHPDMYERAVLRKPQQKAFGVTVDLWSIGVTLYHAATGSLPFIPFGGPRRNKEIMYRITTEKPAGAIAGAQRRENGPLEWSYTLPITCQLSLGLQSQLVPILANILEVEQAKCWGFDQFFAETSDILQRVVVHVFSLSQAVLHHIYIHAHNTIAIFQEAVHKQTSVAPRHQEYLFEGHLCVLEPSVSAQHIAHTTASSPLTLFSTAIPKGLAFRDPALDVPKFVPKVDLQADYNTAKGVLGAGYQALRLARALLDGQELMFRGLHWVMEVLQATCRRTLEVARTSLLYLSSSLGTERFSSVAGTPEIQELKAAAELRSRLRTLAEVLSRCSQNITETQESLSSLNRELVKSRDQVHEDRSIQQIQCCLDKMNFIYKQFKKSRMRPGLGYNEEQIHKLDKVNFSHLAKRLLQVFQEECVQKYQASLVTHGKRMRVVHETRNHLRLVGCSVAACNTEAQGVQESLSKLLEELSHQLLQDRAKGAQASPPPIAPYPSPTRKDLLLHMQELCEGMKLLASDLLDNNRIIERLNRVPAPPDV

- IC50 [1]: 1100 nM
- IC50 [2]: 3200 nM
SMILES: Nc1ncc(-c2cccc(C(=O)O)c2)cc1C(=O)Nc1ccncc1
